Data on 26 molecules can be found in patent US20250282794A1 (CURADEV PHARMA LTD, priority 2022, published 2025).

Chain of recombinant full length HPK-1 enzyme (Q92918 whole entry, species assumed): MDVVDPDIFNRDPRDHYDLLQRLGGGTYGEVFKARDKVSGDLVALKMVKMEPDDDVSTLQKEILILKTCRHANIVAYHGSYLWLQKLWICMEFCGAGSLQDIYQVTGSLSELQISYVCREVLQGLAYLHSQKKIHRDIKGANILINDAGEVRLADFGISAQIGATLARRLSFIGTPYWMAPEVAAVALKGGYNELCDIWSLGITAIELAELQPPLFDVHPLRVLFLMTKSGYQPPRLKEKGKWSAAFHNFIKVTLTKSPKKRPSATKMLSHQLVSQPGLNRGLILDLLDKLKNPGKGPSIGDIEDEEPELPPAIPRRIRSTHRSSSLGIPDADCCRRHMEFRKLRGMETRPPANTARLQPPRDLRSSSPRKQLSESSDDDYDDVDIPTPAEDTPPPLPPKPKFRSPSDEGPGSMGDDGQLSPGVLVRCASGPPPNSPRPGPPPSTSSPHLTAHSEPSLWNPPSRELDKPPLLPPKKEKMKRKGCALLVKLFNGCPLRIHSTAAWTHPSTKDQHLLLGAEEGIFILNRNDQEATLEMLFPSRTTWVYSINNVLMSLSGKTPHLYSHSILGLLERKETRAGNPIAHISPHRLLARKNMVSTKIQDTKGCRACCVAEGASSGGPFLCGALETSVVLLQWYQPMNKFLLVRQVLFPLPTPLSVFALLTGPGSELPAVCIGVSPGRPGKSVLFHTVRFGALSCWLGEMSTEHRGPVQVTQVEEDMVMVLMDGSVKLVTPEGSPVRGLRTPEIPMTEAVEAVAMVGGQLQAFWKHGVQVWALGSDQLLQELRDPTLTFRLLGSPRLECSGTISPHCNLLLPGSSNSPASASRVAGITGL

This assay has as its target recombinant full length HPK-1 enzyme (Homo sapiens (Human), UniProt Q92918). Description: HPK-1 biochemical enzyme assay (ADP-Glo kinase inhibition). To be noted: recombinant full length HPK-1 6.8 nM, 10 μM ATP, 12.5 μM MBP, 30 mins at 25° C. The essentials:
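Recombinant full-length human HPK-1 (6.8 nM) incubated 30 min at 25° C. with 10 μM ATP and 12.5 μM swine MBP in 40 mM Tris pH 7.4, 20 mM MgCl2, 50 μM DTT, 0.1 mg/mL BSA. ADP measured by ADP-Glo; IC50 from 10 concentrations, normalized to no-enzyme and vehicle controls.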
For orientation: In ADP-Glo the light output rises with the ADP produced.
With `Cc1c(Nc2cc[nH]c(=O)c2C(=O)Nc2ccc(N3CCOCC3)cc2)cnc2c1NCCO2` [Example 205, 4-((8-methyl-2,3-dihydro-1H-pyrido[2,3-b][1,4]oxazin-7-yl)amino)-N-(4-morpholinophenyl)-2-oxo-1,2-dihydropyridine-3-carboxamide], the IC50 – broadly, the concentration needed to halve the response being measured – is 10 to 100 nM. The value for `Cc1c(Nc2cc[nH]c(=O)c2C(=O)Nc2ccc(CN3CCN(C)CC3)cc2)cnc2c1NCCO2` [Example 206, 4-((8-methyl-2,3-dihydro-1H-pyrido[2,3-b][1,4]oxazin-7-yl)amino)-N-(4-((4-methylpiperazin-1-yl)methyl)phenyl)-2-oxo-1,2-dihydropyridine-3-carboxamide] was 10 to 100 nM; that for `Cc1c(Nc2cc[nH]c(=O)c2C(=O)Nc2ccc(N3CCN(C)CC3)cc2F)cnc2c1NCCO2` [Example 207, N-(2-fluoro-4-(4-methylpiperazin-1-yl)phenyl)-4-((8-methyl-2,3-dihydro-1H-pyrido[2,3-b][1,4]oxazin-7-yl)amino)-2-oxo-1,2-dihydropyridine-3-carboxamide] was 10 to 100 nM; that for `Cc1c(Nc2cc[nH]c(=O)c2C(=O)Nc2ccc(N3CCN(C)CC3)c(C(=O)N(C)C)c2)cnc2c1NCCO2` [Example 208, N-(3-(dimethylcarbamoyl)-4-(4-methylpiperazin-1-yl)phenyl)-4-((8-methyl-2,3-dihydro-1H-pyrido[2,3-b][1,4]oxazin-7-yl)amino)-2-oxo-1,2-dihydropyridine-3-carboxamide] was 100 to 1000 nM. Regarding `Cc1c(Nc2cc[nH]c(=O)c2C(=O)Nc2ccc(NC3CCN(C)CC3)cc2)cnc2c1NCCO2` [Example 209, 4-((8-methyl-2,3-dihydro-1H-pyrido[2,3-b][1,4]oxazin-7-yl)amino)-N-(4-((1-methylpiperidin-4-yl)amino)phenyl)-2-oxo-1,2-dihydropyridine-3-carboxamide], the IC50 fell in the range of 10 to 100 nM. In the case of `Cc1c(Nc2cc[nH]c(=O)c2C(=O)Nc2ccc(S(N)(=O)=O)cc2)cnc2c1NCCO2` [Example 210, 4-((8-methyl-2,3-dihydro-1H-pyrido[2,3-b][1,4]oxazin-7-yl)amino)-2-oxo-N-(4-sulfamoylphenyl)-1,2-dihydropyridine-3-carboxamide] it was 10 to 100 nM; in that of `Cc1c(Nc2cc[nH]c(=O)c2C(=O)Nc2ccc(N3CCN(C)CC3)c(-n3cnnc3)c2)cnc2c1NCCO2` [Example 211, 4-((8-methyl-2,3-dihydro-1H-pyrido[2,3-b][1,4]oxazin-7-yl)amino)-N-(4-(4-methylpiperazin-1-yl)-3-(4H-1,2,4-triazol-4-yl)phenyl)-2-oxo-1,2-dihydropyridine-3-carboxamide], 10 to 100 nM; in that of `Cc1c(Nc2cc[nH]c(=O)c2C(=O)Nc2ccc(N3CCCC(C(C)(C)O)C3)cc2)cnc2c1NCCO2` (centres unmarked) [Example 212, N-(4-(3-(2-hydroxypropan-2-yl)piperidin-1-yl)phenyl)-4-((8-methyl-2,3-dihydro-1H-pyrido[2,3-b][1,4]oxazin-7-yl)amino)-2-oxo-1,2-dihydropyridine-3-carboxamide], at most 10 nM. The value for `Cc1c(Nc2cc[nH]c(=O)c2C(=O)Nc2ccc(CN3CCN(C)CC3)c(C(F)(F)F)c2)cnc2c1NCCO2` [Example 213, 4-((8-methyl-2,3-dihydro-1H-pyrido[2,3-b][1,4]oxazin-7-yl)amino)-N-(4-((4-methylpiperazin-1-yl)methyl)-3-(trifluoromethyl)phenyl)-2-oxo-1,2-dihydropyridine-3-carboxamide] was 10 to 100 nM. In the case of `Cc1c(Nc2cc[nH]c(=O)c2C(=O)Nc2ccc(C3CCCN(C)C3)cc2)cnc2c1NCCO2` (centres unmarked) [Example 214, 4-((8-methyl-2,3-dihydro-1H-pyrido[2,3-b][1,4]oxazin-7-yl)amino)-N-(4-(1-methylpiperidin-3-yl)phenyl)-2-oxo-1,2-dihydropyridine-3-carboxamide] it was at most 10 nM; in that of `Cc1c(Nc2cc[nH]c(=O)c2C(=O)Nc2ccc(N3CCN(C)CC3)c(C(=O)O)c2)cnc2c1NCCO2` [Example 215, 5-(4-((8-methyl-2,3-dihydro-1H-pyrido[2,3-b][1,4]oxazin-7-yl)amino)-2-oxo-1,2-dihydropyridine-3-carboxamido)-2-(4-methylpiperazin-1-yl)benzoic acid], 100 to 1000 nM. Regarding `Cc1c(Nc2cc[nH]c(=O)c2C(=O)Nc2ccc(N3CCC(C(=O)O)CC3)cc2)cnc2c1NCCO2` [Example 216, 1-(4-(4-((8-methyl-2,3-dihydro-1H-pyrido[2,3-b][1,4]oxazin-7-yl)amino)-2-oxo-1,2-dihydropyridine-3-carboxamido)phenyl)piperidine-4-carboxylic acid], the IC50 lay within 10 to 100 nM. In the case of `Cc1cc(NS(C)(=O)=O)ccc1NC(=O)c1c(Nc2cnc3c(c2C)NCCO3)cc[nH]c1=O` [Example 217, 4-((8-methyl-2,3-dihydro-1H-pyrido[2,3-b][1,4]oxazin-7-yl)amino)-N-(2-methyl-4-(methylsulfonamido)phenyl)-2-oxo-1,2-dihydropyridine-3-carboxamide] it was 100 to 1000 nM. In the case of `CCN1C(=O)C(C)(C)c2cc(NC(=O)c3c(Nc4cnc5c(c4C)NCCO5)cc[nH]c3=O)ccc21` [Example 218, N-(1-ethyl-3,3-dimethyl-2-oxoindolin-5-yl)-4-((8-methyl-2,3-dihydro-1H-pyrido[2,3-b][1,4]oxazin-7-yl)amino)-2-oxo-1,2-dihydropyridine-3-carboxamide] it was 100 to 1000 nM; in that of `Cc1c(Nc2cc[nH]c(=O)c2C(=O)Nc2ccc(N3CCN(C)[C@@H](C)C3)cc2)cnc2c1NCCO2` [Example 219, (S)-N-(4-(3,4-dimethylpiperazin-1-yl)phenyl)-4-((8-methyl-2,3-dihydro-1H-pyrido[2,3-b][1,4]oxazin-7-yl)amino)-2-oxo-1,2-dihydropyridine-3-carboxamide], at most 10 nM; in that of `Cc1c(Nc2cc[nH]c(=O)c2C(=O)Nc2ccc(N3CCN(C)[C@H](C)C3)cc2)cnc2c1NCCO2` [Example 220, (R)-N-(4-(3,4-dimethylpiperazin-1-yl)phenyl)-4-((8-methyl-2,3-dihydro-1H-pyrido[2,3-b][1,4]oxazin-7-yl)amino)-2-oxo-1,2-dihydropyridine-3-carboxamide], at most 10 nM. The value for `Cc1c(Nc2cc[nH]c(=O)c2C(=O)Nc2ccc3c(c2)NC(=O)CO3)cnc2c1NCCO2` [Example 221, 4-((8-methyl-2,3-dihydro-1H-pyrido[2,3-b][1,4]oxazin-7-yl)amino)-2-oxo-N-(3-oxo-3,4-dihydro-2H-benzo[b][1,4]oxazin-6-yl)-1,2-dihydropyridine-3-carboxamide] was 100 to 1000 nM.

For `Cc1c(Nc2cc[nH]c(=O)c2C(=O)Nc2cccc(N3CCN(C)CC3)c2)cnc2c1NCCO2` [Example 222, 4-((8-methyl-2,3-dihydro-1H-pyrido[2,3-b][1,4]oxazin-7-yl)amino)-N-(3-(4-methylpiperazin-1-yl)phenyl)-2-oxo-1,2-dihydropyridine-3-carboxamide], the concentration for half-maximal inhibition (IC50) is 100 to 1000 nM. The value for `Cc1c(Nc2cc[nH]c(=O)c2C(=O)Nc2ccc(S(C)(=O)=O)cc2)cnc2c1NCCO2` [Example 223, 4-((8-methyl-2,3-dihydro-1H-pyrido[2,3-b][1,4]oxazin-7-yl)amino)-N-(4-(methylsulfonyl)phenyl)-2-oxo-1,2-dihydropyridine-3-carboxamide] was 10 to 100 nM; that for `Cc1nc2cc(NC(=O)c3c(Nc4cnc5c(c4C)NCCO5)cc[nH]c3=O)ccc2[nH]1` [Example 224, N-(2-methyl-1H-benzo[d]imidazol-5-yl)-4-((8-methyl-2,3-dihydro-1H-pyrido[2,3-b][1,4]oxazin-7-yl)amino)-2-oxo-1,2-dihydropyridine-3-carboxamide] was 10 to 100 nM.

For the molecule `Cc1c(Nc2cc[nH]c(=O)c2C(=O)Nc2ccc(N3CCN(CCCS(C)(=O)=O)CC3)cc2)cnc2c1NCCO2` [Example 225, 4-((8-methyl-2,3-dihydro-1H-pyrido[2,3-b][1,4]oxazin-7-yl)amino)-N-(4-(4-(3-(methylsulfonyl)propyl)piperazin-1-yl)phenyl)-2-oxo-1,2-dihydropyridine-3-carboxamide], the IC50 was at most 10 nM. The value for `Cc1c(Nc2cc[nH]c(=O)c2C(=O)Nc2ccc(N3CCN(CCN4CCOCC4)CC3)cc2)cnc2c1NCCO2` [Example 226, 4-((8-methyl-2,3-dihydro-1H-pyrido[2,3-b][1,4]oxazin-7-yl)amino)-N-(4-(4-(2-morpholinoethyl)piperazin-1-yl)phenyl)-2-oxo-1,2-dihydropyridine-3-carboxamide] was at most 10 nM. The value for `Cc1c(Nc2cc[nH]c(=O)c2C(=O)Nc2ccc(N3CCN(C)CC3)c(CN(C)C)c2)cnc2c1NCCO2` [Example 227, N-(3-((dimethylamino)methyl)-4-(4-methylpiperazin-1-yl)phenyl)-4-((8-methyl-2,3-dihydro-1H-pyrido[2,3-b][1,4]oxazin-7-yl)amino)-2-oxo-1,2-dihydropyridine-3-carboxamide] was at most 10 nM. The value for `Cc1c(Nc2cc[nH]c(=O)c2C(=O)Nc2ccc(C[C@H]3COC(=O)N3)cc2)cnc2c1NCCO2` [Example 228, (S)-4-((8-methyl-2,3-dihydro-1H-pyrido[2,3-b][1,4]oxazin-7-yl)amino)-2-oxo-N-(4-((2-oxooxazolidin-4-yl)methyl)phenyl)-1,2-dihydropyridine-3-carboxamide] was 10 to 100 nM; that for `Cc1c(Nc2cc[nH]c(=O)c2C(=O)Nc2cnc(-n3nccn3)c(Cl)c2)cnc2c1NCCO2` [Example 229, N-(5-chloro-6-(2H-1,2,3-triazol-2-yl)pyridin-3-yl)-4-((8-methyl-2,3-dihydro-1H-pyrido[2,3-b][1,4]oxazin-7-yl)amino)-2-oxo-1,2-dihydropyridine-3-carboxamide] was 100 to 1000 nM.

Take `Cc1c(Nc2cc[nH]c(=O)c2C(=O)Nc2ccc3c(c2)OCCO3)cnc2c1NCCO2` [Example 230, N-(2,3-dihydrobenzo[b][1,4]dioxin-6-yl)-4-((8-methyl-2,3-dihydro-1H-pyrido[2,3-b][1,4]oxazin-7-yl)amino)-2-oxo-1,2-dihydropyridine-3-carboxamide]: the IC50 lay within 10 to 100 nM.
